Assay results: US4416874A, “Injectable compositions of BBM-928A” (Bristol-Myers Company, priority 1982, dated 1983)
Values after ≈ are worked out from the molar mass of the structure shown. Where two headings read alike, the source gives them in different places.

Legend:
[1] = Solubility in solvents and pharmaceutical vehicles; format: physicochemical
Protocol: Is thus evident that due to the hydrolytic sensitivity and insolubility of BBM-928A that a formidable pharmaceutical formulation problem is presented for the intravenous use thereof.
The disodium salt of BBM-928A has been prepared by dissolving BBM-928A in aqueous sodium hydroxide at pH 10.5, washing with chloroform, and lyophilizing the aqueous solution. Its solubility in water is 0.5 mg/ml. In the dry state disodium BBM-928A gradually decomposes to BBM-928B and BBM-928C at higher temperatures. The following Table exemplifies this:
Limited solubility in the following solvents was observed.
(§1) The preferred composition of the present invention employs trisodium orthophosphate as the base for solubilization of BBM-928A. Solutions having concentrations of BBM-928A of from 1 to 5 mg per milliliter are readily prepared when 0.65 parts by weight of trisodium orthophosphate per part by weight of BBM-928A are employed. Such solutions have a pH within the range of 11.0 to 11.5. If an amount of the base is employed which is insufficient to provide a pH value of pH 11.0 the desired level of solubilization of the BBM-928A is not achieved. At pH values in excess of 11.5 decomposition through hydrolysis of the BBM-928A becomes so extensive as to result in loss of utility of the solutions. […] Such solutions should not be kept for longer periods but should be prepared extemporaneously prior to use. Conventional aseptic techniques conforming to the criteria of both good laboratory practices and good manufacturing practices should be employed in preparing the compositions of the present invention.

[2] = chloroform and methylene chloride; cited from earlier work
[3] = Stability of intravenous solutions at pH 11.0 to 11.5 (high performance liquid chromatography); format: physicochemical; details: intravenous solution solubilized by trisodium phosphate
Protocol: as §1, with “Conventional aseptic techniques conforming to the criteria of both good laboratory practices and good manufacturing practices should be employed in preparing the compositions of the present invention.” left out
The resulting bulk powder is then filled into glass vials at the rate of 16.5 mg. per vial (10 mg. BBM-928A), and the vials sealed by a proper closure to maintain the anhydrous sterile condition. […] Each vial is constituted for intravenous injection with the desired quantity of sterile water for injection in an amount of 2 ml. or more per vial (conc. up to 5 mg/ml. and preferably from 1 to 5 mg/ml. of BBM-928A). […]

Question: Which solubility ([1]; Aqueous L-arginine 10%, yellow solution with a slight haze) does the source give for `COc1ccc2nc(C(=O)N[C@@H]3COC(=O)[C@H](C(C)(C)O)N(C)C(=O)CN(C)C(=O)CNC(=O)[C@@H]4[C@@H](OC(C)=O)CC=NN4C(=O)[C@H](NC(=O)c4nc5ccc(OC)cc5cc4O)COC(=O)[C@H](C(C)(C)O)N(C)C(=O)CN(C)C(=O)CNC(=O)[C@@H]4[C@@H](OC(C)=O)CC=NN4C3=O)c(O)cc2c1` [BBM-928A] here?
Answer: The solubility was 1 mg/mL (≈ 701 µM).

Question: And the solubility ([1]; Ethyl lactate, slight haze)?
Answer: The solubility was “about 1 mg/ml”.

Question: What about the solubility ([1]; Ethyl levulinate, standing in contact with the solvent overnight) of the same compound?
Answer: The solubility was 0.5 mg/mL (≈ 350 µM).

Question: And the solubility ([1]; Lactic acid U.S.P.)?
Answer: The solubility was 1 mg/mL (≈ 701 µM).

Question: What about the “solubility in 22 commonly employed pharmaceutical vehicles” value ([1]; poloxamer polyols, benzyl alcohol, ethanol, fixed oils, propylene glycol, polyethylene glycol 400, urea, povidone, nicotinamide, dextrose solutions etc.) of the same compound?
Answer: Its value is “virtually insoluble”.

Question: And the solubility [2]?
Answer: The solubility was “readily soluble”.

Question: And the “period of sufficient stability for use following preparation” value [3]?
Answer: The value was “up to 4 hours”.
